Source: patent US20260283924A1, “TOPICAL COMPOSITIONS FOR PROMOTING HAIR GROWTH” (ESTETRA SRL, priority 2023, published 2026)

Legend:
[1] = system: Female wild-type (C57BL/6J) mice; experiment: In vivo LPS-induced delayed wound healing model: uterine weight and morphology (systemic effect), Example 4; settings: topical over wounds, 60 μl total, day -1 to day 4; uteri at day 5
[2] = Antioxidant activity measured with Skin-Biosense sensor; settings: H2O2 5 mM
Experimental: The antioxidant activity of E4 was evaluated using the Skin-Biosense® sensor, a technology developed by Qima Life Sciences (Gencay, France). This electrochemical sensor measures the electron transfer between two conductive elements: the sensor and a solution of H2O2. The H2O2 solution is used as a marker for the determination of the detoxification power: as H2O2 is one of the most oxidizing non-radical species, any molecule capable of decreasing its concentration can be considered as an antioxidant. When a sample is in the presence of H2O2, all its antioxidative species spontaneously react with it and decrease its quantity. As the area of the peak measured by the sensor is directly proportional to H2O2 concentration, the detoxifying activity of a compound is evaluated by its modulation of the peak area.
H2O2 5 mM in electrolytic ethanol solution was mixed with E4 in electrolytic ethanol solutions at several concentrations (0.16-0.5-1.6-5-16-50 mM), and the H2O2 oxidation peaks area were measured. The power of the antioxidant activity was calculated by comparing the peak area of the H202 solution with the peak area of the H2O2 solution mixed with an E4 solution.

[3] = system: human anagen VI scalp HFs; experiment: LDH release into the medium (cytotoxicity), healthy donor hair follicle organ culture; assay type: cell-based; settings: all tested concentrations (300 nM, 3 μM, 30 μM)
Experimental: 12-44 full-length frontotemporal hair follicles (HF) were obtained from four healthy human female donors >50 years old. […] Donor 2:29; Donor 3:44; Donor 4:32). After microdissection from skin as described in the art (Edelkamp et al., Methods Mol Biol, 2020, 2154:105-119; and Langan et al., Exp Dermatol, 2015 December; 24(12):903-1), HFs were placed in adequate culture medium and allowed a 24 h rest period to allow them to recover from the trauma of microdissection. Test substance (either vehicle (0.3% EtOH) or E4 at concentrations of 30 μM, 3 μM or 300 nM) was added to the medium at the end of the 24 h. Total culturing time was 5-9 days depending on the stage of the HFs in the vehicle group. The experimental design for a 6-days HF organ culture experiment is depicted in FIG. 9.
LDH is released from the cytoplasm of damaged cells into the culture medium. Therefore, the cytotoxicity of agents can be estimated based on the activity of LDH present in the culture medium using a colorimetric assay (Cytotoxicity Detection Kit [LDH], Roche) as described (Gherardini et al Int J Cosmet Sci, 2019 April; 41(2):164-182). The measurements were performed on supernatants collected on days respective to each culture and normalized to blank.
For the maximum release, HFs were treated with 1% Triton X 100 in vehicle medium at 37° C. for 30 minutes in order to induce maximum LDH release into the medium.

[4] = system: terminal and intermediate hair follicles from affected and non-affected areas of FPHL donors; experiment: Female pattern hair loss (FPHL) donor hair follicle organ culture (ex vivo model), Example 9; assay type: cell-based, human; settings: 3 μM; for microscopic hair cycle staging: anagen: HFs from non-affected (terminal) and affected (terminal and intermediate) scalp, preliminary, 2 donors; for hair matrix keratinocytes proliferation: terminal HFs from non-affected and affected scalp; for versican expression: terminal and intermediate HFs from non-affected scalp
Text: Example 7 is repeated for female donor subjects suffering from pattern hair loss (FPHL), with a few modifications. In brief, terminal and intermediate hair follicles (HF) from affected (vertex) and non-affected (occipital) areas were obtained from female donors diagnosed to have FPHL (FIG. 34). After microdissection from skin as described in the art (Edelkamp et al., Methods Mol Biol, 2020, 2154:105-119; and Langan et al., Exp Dermatol, 2015 December; 24(12):903-1), HFs are placed in adequate culture medium and allowed a 24 h rest period to allow them to recover from the trauma of microdissection. Test substance (either vehicle (0.03% EtOH) or E4 at concentrations of 3 μM) was added to the medium at the end of the 24 h. Total culturing time was 3-5 days depending on the stage of the HFs in the vehicle group. The experimental design is depicted in FIG. 35. The same parameters as those described in Example 7 were investigated.
[…] Three additional donors still have to be collected.

[5] = intermediate HFs from affected scalp
[6] = intermediate HFs from non-affected area
[7] = intermediate HFs from non-affected scalp
[8] = intermediate HFs from non-affected scalp, listed as estetrol
[9] = terminal HFs from non-affected scalp
[10] = terminal HFs from non-affected scalp, listed as estetrol

SMILES: C[C@]12CC[C@@H]3c4ccc(O)cc4CC[C@H]3[C@@H]1[C@@H](O)[C@@H](O)[C@@H]2O [Formulation E4, 1,3,5 (10)-estratrien-3,15alpha,16alpha,17beta-tetrol]
- uterine weight and morphology [1]: affects uterine weight in a dose-dependent manner
- antioxidant activity (in words) ([2]; E4 0.16-50 mM): potent antioxidant activity
- antioxidant activity ([2]; highest E4 concentration, 50000 µM): 100%
- antioxidant activity, mean power ([2]; molar ratio E4/H2O2 of 1): 77.5%
- HF cytotoxicity (LDH release into the medium) [3]: did not induce HF cytotoxicity
- HF cytotoxicity (LDH release into the medium) ([3]; listed as Estetrol): does not induce LDH release into the medium
- hair matrix keratinocytes apoptosis [4]: without affecting hair matrix keratinocytes apoptosis
- dermal papilla inductivity (versican expression and alkaline phosphatase activity) ([4]; HFs from affected area): not strikingly altered
- microscopic hair cycle staging: anagen [4]: prolonged anagen
- microscopic hair cycle staging: anagen ([4]; listed as estetrol): prolongs anagen
- density of dermal papilla cells [4, 5]: tendentially increased the density
- total number of dermal papilla cells [4, 5]: tendentially increased
- density of dermal papilla cells [4, 6]: tendentially decreases the density
- total number of cells in the dermal cup [4, 6]: increases
- K15 expression, bulge basal layer [4, 7]: tendentially increased K15 expression
- area size of the dermal papilla [4, 7]: tendentially increased
- density of dermal papilla stalk cells [4, 7]: tendentially decreased the density of dermal papilla stalk cells
- total number of cells of the dermal papilla [4, 7]: tendentially increased the total number of cells
- area size of the dermal papilla [4, 8]: increases
- density of dermal papilla stalk cells [4, 8]: tendentially decreased
- total number of cells of the dermal papilla [4, 8]: increases the total DP cell number
- proliferation of K15+ cells, bulge basal layer ([4]; terminal HFs from affected scalp): increased proliferation of K15+ cells
- hair matrix keratinocytes proliferation [4]: tendentially increased hair matrix keratinocytes proliferation
- hair matrix keratinocytes proliferation ([4]; listed as estetrol): tendentially increases hair matrix keratinocytes proliferation
- proliferation of K15+ cells, suprabulbar outer root sheath ([4]; terminal HFs from non-affected and intermediate HFs from affected scalp): increased proliferation of K15+ cells
- density of dermal papilla stalk cells ([4]; terminal HFs from non-affected area): without influencing their density
- K15 expression, suprabulbar outer root sheath [4, 9]: tendentially increased K15 expression
- area size of the dermal papilla stalk [4, 9]: significantly decreased
- number of K15 positive cells, suprabulbar outer root sheath [4, 9]: tendentially increased
- total number of cells in the dermal cup [4, 9]: significantly reduced the total number of cells in the dermal cup
- total number of cells of the dermal papilla stalk [4, 9]: significantly decreased the total number of cells
- area size of the dermal papilla stalk [4, 10]: significantly decreases
- total number of cells in the dermal cup [4, 10]: significantly reduces
- total number of cells of the dermal papilla stalk [4, 10]: significantly decreases the total number
- alkaline phosphatase activity (dermal papilla inductivity) ([4]; terminal and intermediate HFs from non-affected area): tendential increase
- versican expression [4]: tendentially increased versican expression
- versican expression ([4]; listed as estetrol): tendentially increases versican expression
